# Measurements: a melting point compilation (Tetko et al.; mined from patent text by program, amines drawn as free bases though some values may be those of a salt)
row,SMILES,melting point [°C]
1,Cc1oc(-c2ccco2)nc1COc1ccc(CO)cn1,120 to 121
2,O=C(O)CCCOc1cccc2c1Cc1sc(SCCC(c3ccccc3)c3ccccc3)nc1-2,86 to 88
3,O=C(O)c1cccc(N(C(c2ccccc2)c2ccccc2)n2cc(C3c4ccccc4C=Cc4ccccc43)c(=S)[nH]c2=O)c1,210
4,C=CCNC(=S)C(CN1CCOCC1)c1ccccn1 (centres undefined),84 to 86
5,O=C1CC(c2ccccc2)C(c2ccccc2)=NN1C(=O)Nc1ccc(C(F)(F)F)cc1 (centres undefined),164 to 166
6,Nc1c(-c2ccc(-c3ccc(F)cc3F)cc2)nc2ccc(Cl)cc2c1C(=O)O,253 to 254
7,Cc1ccc(Sc2ccccc2)c(CC(=O)O)c1,83 to 84
8,Cc1nc2c3c(c(C(=O)N(C)C)cc2[nH]1)CCC1(Cc2ccccc2C1)N3,183
9,Cc1ccc(NC(=O)c2ccc(/C=C/C(=O)NO)s2)cc1Nc1nc(-c2cccnc2)cs1,242
10,CC(=O)NC(CCCCN)C(=O)C(N)C(CC1(C(=O)NC2CCC(C(=O)O)CC2)CCCC1)C(=O)O (centres undefined),161 to 163
11,CCCN1NC(c2ccccc2)C2=C1C(=Cc1ccccc1)CSC2 (centres undefined),106 to 118
12,CCOC(=O)C(C)(C)Cc1cccnc1,64 to 66
13,Cc1nc(-c2cccc(C(=O)c3ccccc3)c2)sc1C(=O)O,213 to 215
14,COCC(=O)N[C@H]1CC[C@H](CCN2CCC(c3cccc4c3CCO4)CC2)CC1,156
15,CC(C)(C)c1cc(O)no1,99 to 101
16,Oc1ccc(Oc2cnc3cc(F)ccc3n2)cc1,78 to 79
17,Brc1ccn2nc(N3CCCC3)nc2c1,170 to 172
18,COC1N=C(c2ccccc2Cl)c2cc(Cl)ccc2-c2c[nH]cc21 (centres undefined),215 to 218
19,COc1cccc(N(C)C(=O)C(C)Br)c1 (centres undefined),55 to 56
20,COc1ccc(NC(=O)c2ccccc2)cc1NC(=S)Nc1cc(Cl)cc(Cl)c1,194 to 195
21,CN(C)c1cccc(-c2nc3c(N[C@H]4[C@@H](C(N)=O)[C@@H]5C=C[C@H]4C5)ccnc3[nH]2)c1,200 to 204
22,CCOC(=O)C=Cc1ccc(OCCc2nc(-c3ccccc3)oc2C)cc1,114 to 115
23,CC(C)(C)OC(=O)NCC1CN(C(c2ccccc2)c2ccccc2)C1,108 to 110
24,Nc1cc([N+](=O)[O-])c[nH]c1=O,200 to 201
25,CCOCC1(F)CCN([C@@H](c2ccc(C(F)(F)F)cc2CN(Cc2cc(C(F)(F)F)cc(C(F)(F)F)c2)c2nnn(C)n2)C(C)C)CC1,95
26,N#Cc1ccc(OCC(O)CN2CCSCC2)cc1 (centres undefined),94 to 95
27,NC(=O)Cc1cn(-c2ccccc2)nc1-c1ccc(Cl)cc1,182
28,CC(C)(CCc1nnn[nH]1)c1ccc(C(=O)Nc2cn3cc(C(F)(F)F)ccc3n2)cc1,250 to 251

row,SMILES,melting point [°C]
1,CC12CCC(=O)C=C1CCC(=Cc1ccccc1)C2=O (centres undefined),88
2,Cc1sc(S(=O)(=O)NC(C)(C)CO)cc1[N+](=O)[O-],118
3,CCOC(=O)c1scnc1Cl,43 to 45
4,CC(=O)OC1CSC(Oc2cccc(-c3cnoc3C)c2)C(OC(C)=O)C1OC(C)=O (centres undefined),60
5,CCCN1CCCC2c3nc(N)sc3CCC21 (centres undefined),163 to 181
6,FC(F)(F)Oc1ccc(-c2ncc(CBr)cn2)cc1,80 to 81
7,O=C(O)c1cc(-n2c(-c3cccs3)cc3c2CCCC3)ccc1O,211 to 213
8,CC(C)(CO)NC(=O)NCCNCC(O)COc1ccc(O)cc1 (centres undefined),113 to 130
9,CCOP(=O)(C[C@H]1CCN[C@@H](C(N)=O)C1)OCC (relative stereo),155 to 158
10,Cc1cc(-c2cc(C(F)(F)F)n3ncc(I)c3n2)ccc1Cl,151
11,CN(C)c1ccc(N=Nc2ccc(C(=O)Nc3ccc4[nH]nnc4c3)cc2)cc1,246
12,O=C(NC(=O)c1c(F)cccc1F)Nc1cc(Cl)c(OC(F)(F)C(F)(F)F)cc1Cl,178 to 179
13,OCc1ccc(/C=C/c2ccc[nH]2)cc1,186 to 189
14,O=C(CC1CC(OC(=O)c2ccccc2)CCC1=O)c1ccccc1 (centres undefined),107 to 108
15,COC12CC(COS(=O)(=O)c3ccc(C)cc3)CN(C)C1Cc1cn(C(C)(C)C)c3cccc2c13 (centres undefined),150 to 152
16,CC(Sc1nc(SCc2ccccc2)n[nH]1)C(=O)O (centres undefined),123 to 124
17,Cc1c(Cc2ccc(F)c(Cl)c2)sc2c(-c3cccc(C(=O)NCCO)c3)cccc12,146 to 147
18,CC(NC(=O)c1ccccc1I)C(O)c1ccccc1 (centres undefined),129 to 130
19,"COC1CCC(OC)C2=C1C=CC(O)(C(C)=O)C2 (single isomer, unassigned; (-))",130 to 132
20,O=CN1CCC(c2nn(-c3ccc(C(F)(F)F)cc3)c3ccccc23)CC1,109 to 111
21,CONC(=O)NC1CCCc2sccc21 (centres undefined),138
22,Cc1nc(N2CCN(Cc3cccc(C(F)(F)F)c3)C2=O)sc1C(=O)NCc1cccnc1,175 to 176
23,COc1ccc(CCN2CCC(NC(=O)c3ccccc3)CC2)cc1,178
24,Oc1ccc(Br)cc1C12CC3CC(CC(C3)C1)C2,140 to 141
25,C=C1Cc2cc3c(cc2C(c2ccc(N(C(C)=O)C(C)=O)cc2)=NN1C(C)=O)OCO3,240 to 245
26,O=C(O)CCC(=O)c1c(-c2ccccc2)cc2ccccn12,131 to 133
27,COc1cccc2c1CCC=C2N1CCOCC1,80 to 90

# Other lines, results leading:
row,melting point [°C],SMILES
1,170 to 173,COc1ccc2c(Cc3c(Cl)cncc3Cl)nnc(N(C)C)c2c1
2,125 to 127,Cc1oc(-c2ccc(Cl)cc2)nc1COc1cccc(CN(O)C(N)=O)c1
3,88,CCCC(Oc1ccc2c(-c3ccc(Cl)cc3)noc2c1)C(=O)OCC (centres undefined)
4,90 to 93,COc1ccc(N2C(=O)C(=C3CCCN3C)c3ccccc32)cc1
5,91 to 97,COc1cc(C(=O)NS(=O)(=O)c2ccccc2Br)ccc1Cc1cccc2ccc(CCCCC(=O)N(C)C)cc12
6,105 to 106,CCOC(=O)NN1CCN(CCCCC(=O)c2ccccc2)CC1
7,100 to 101,O=Cc1ccccc1Oc1ccc(Cl)cc1[N+](=O)[O-]
8,179 to 180,CS(=O)(=O)c1ccc(-n2cc(C(F)F)nc2-c2ccc(Cl)cc2)cc1
9,160 to 168,CCOC(=O)c1ncc2[nH]c3cccc(Cc4ccccc4)c3c2c1COC
10,165 to 166,CON=C(C)c1cccc(S(N)(=O)=O)c1
11,35 to 37,CCOC(=O)C(C)Oc1ncn(-c2cccc(F)c2)n1 (centres undefined)
12,201,CCc1ccc(Cn2cc(-c3cn(C4CC(O)C(CO)O4)c(=O)[nH]c3=O)nn2)cc1 (centres undefined)
13,> 260,CCOC(=O)c1cnc2ccc(SC)cc2c1O
14,107 to 110,COc1ccccc1N1CCN(CCNC(=O)c2nsc3ccccc23)CC1
15,166 to 167,CCOC(=O)N(CC(=O)O)C(=O)c1c(OCC(F)(F)F)ccc2c(C(F)(F)F)c(OC)ccc12
16,172 to 174,CCCCc1cc(C(N)=O)ccc1OCCCNc1cnn(C(C)C)c(=O)c1Cl
17,127 to 128,COc1cc(COc2nn(-c3ccccc3)cc2CO)ccc1OCc1nc(-c2ccco2)oc1C
18,200 to 203,COC(=O)c1ccc(Cn2c(=O)c3cc(C(=O)NCc4cccc(OC)c4)sc3n(C)c2=O)cc1OC
19,147 to 148,COc1ccc(CNC(=O)N2CCN(c3ncnc4cc(OC)c(OC)cc34)CC2)cc1
20,166,COC(=O)C1=C(C)NN=C(C(=O)OC(C)C)C1c1ccccc1Cl (centres undefined)
21,206,Cc1cc2nc3ccccc3sc-2c(Cl)c1=O
22,210,CNC(=O)NS(=O)(=O)c1cc(CCNC(=O)C=Cc2ccc(OC)cc2OC)ccc1OC

row,melting point [°C],SMILES
1,55,CCCN(c1nc(-c2ccc(OC)cc2Cl)c(C)s1)c1cc(-c2ccccc2C)ccc1OC
2,88 to 90,CCCCn1c(C=O)cnc1Cc1c(F)cccc1Cl
3,83 to 85,COCCOc1c(S(C)(=O)=O)ccc(Cl)c1C
4,212 to 215,CCOC(=O)C1=C(C)NC(C)=C(C(=O)OC(C)C)C1c1csc2ccncc12 (centres undefined)
5,192 to 193,CCCCCCCC=CC1=Nc2ccc(F)cc2C(=O)C1C (centres undefined)
6,134 to 135,CCCCn1c(=O)c2c(ncn2S(=O)(=O)c2ccc(OC)c(OC)c2)n(CCCC)c1=O
7,166 to 167,CCc1nn2c(Cl)cc(Cl)nc2c1S(=O)(=O)c1ccccc1
8,180,COc1cc(Nc2ccnc(Nc3cc(OC)c(OC)c(OC)c3)n2)cc(OC)c1OC
9,216 to 218,COc1ccnc(CCc2nc3cc(-c4ccc(S(N)(=O)=O)cc4)cnc3[nH]2)c1
10,86 to 87,CCOc1cc(CCl)cc(OCc2nc(-c3ccccc3)oc2C)c1
11,216 to 218,COc1cc2c(cc1C(F)(F)F)N(C(=O)Nc1cc(Br)c(C)c(-c3cccnc3)c1)CC2
12,92 to 93,COc1ccc(S(=O)(=O)Nc2ccccc2C(F)(F)F)cc1
13,162 to 163,COC1=C(OC)C(=O)c2c(NC(C)=O)cccc2C1=O
14,121 to 123,CCn1c(COCc2ccccc2)nc(C(C)C)c1Sc1cccc([N+](=O)[O-])c1
15,246 to 247,CC(C)(O)Cn1cnc2c1c1ccccc1n1nnnc21
16,140 to 142,O=C(O)COCc1cc2cc(Cl)ccc2n1S(=O)(=O)c1ccccc1
17,79 to 80,CCOC(=O)c1c(C)nc2c(c1N)c1ccccc1n2C
18,306 to 307,Cc1sc2nc3ccc(C#N)cn3c(=O)c2c1C
19,196 to 198,Cc1[nH]c(=O)n(CCC(C(=O)NO)N(C)S(=O)(=O)c2ccc(Oc3ccccc3)cc2)c(=O)c1F (centres undefined)
20,130,CCOC(=O)c1c(O)c2cc(C)ccc2n(Cc2ccc(F)cc2)c1=O
21,253 to 256,CC1CCCN(C(=O)C2Cc3cc(O)ccc3N2c2ccc(=O)n(C)n2)C1 (centres undefined)
22,206,CCCn1c(=S)sc2c(=N)n(NC(=O)c3ccco3)cnc21
